Test results taken from publication PMC12066977, “Alkyl Tail Variation on Chalcone‐Based Quaternary Pyridinium Salts as Rule‐of‐Thumb for Antimicrobial Activity” (Archiv Der Pharmazie, 2025).

Test system: E. coli
Assay: Colistin association assay
Format: cell-based, Escherichia coli
Conditions: colistin at sub-inhibitory concentration (MIC/8 = 0.027 µM), versus compound alone
Protocol: This is a confirmation of the ability of these new QPySs to also affect Gram‐negative proliferation once they pass through the OM.
The dry powder of the chalcone‐based QPySs was resuspended in dimethylsulfoxide (DMSO) at 20 mM and used as stock solutions. For biological investigations, compounds were used in the range 100–0.78 µM, and the solvent in the corresponding percentage range. The following commercially available antimicrobials and toxic clinical drugs were purchased from Sigma‐Aldrich (St. Louis, MO, USA), dissolved in water, and used as reference controls. Gentamicin and ampicillin were used in the range 107.69–0.82 µM and 143.23–1.12 µM, respectively; the colistin was used at 0.03 µM in association with the chalcone‐based QASs with E. coli. The fluconazole was used in the assays with C. albicans in the range 3.27–0.03 µM. […]
In short, microbial inocula were prepared at 0.5 McFarland in PBS and, subsequently, bacterial suspensions were diluted 1:200 in Mueller–Hinton broth (Sigma‐Aldrich, St. Louis, MO, USA), while fungal inoculum was diluted 1:20 in RPMI‐1640 medium (Gibco®, ThermoFisher Scientific Inc., Waltham, MA, USA), containing glucose 2%, 0.3% levo‐glutamine buffered to pH 7.0 with 0.165 M 3‐(N‐morpholino) propanesulfonic acid (MOPS). […] The plate was incubated at 37°C for 24 h, and subsequently the optical density at 630 nm (OD630nm) was spectrophotometrically measured. […]

C#CCOc1ccc(C(=O)/C=C/c2ccc[n+](CCCCCCCCCCCCCC)c2)c(OCC#C)c1.[Br-] [Compound 6, (E)‐3‐{3‐[2,4‐Bis(prop‐2‐yn‐1‐yloxy)phenyl]‐3‐oxoprop‐1‐en‐1‐yl}‐1‐tetradecylpyridin‐1‐ium bromide]
MIC decrease for E. coli in association with colistin: fourfold
